Source: ChEMBL document CHEMBL1157976, “Iridoid constituents of Tarenna attenuata” (J Nat Prod, 2006)
Activity calls are given as the source filed them. The calls are words filed in the database; no cut-off is given here.

How the values were obtained:
[1] = test system: PC-12; experiment: Antioxidant activity against H2O2-induced impairment of rat PC12 cells apoptosis at 0.4 to 50 uM; format: functional, cell-based
[2] = test system: PC-12; experiment: Cytotoxicity against rat PC12 cells at 0.4 to 50 uM; format: functional, cell-based

O=C(/C=C/c1ccccc1)OC[C@H]1O[C@@H](O[C@@H]2OC=C(C(=O)O)[C@H]3CC=C(C(=O)O)[C@@H]23)[C@H](O)[C@@H](O)[C@@H]1O
Activity [1]: inactive | Activity [2]: inactive

O=C(O)C1=CC[C@@H]2C(C(=O)O)=CO[C@@H](O[C@@H]3O[C@H](CO)[C@@H](O)[C@H](O)[C@H]3O)[C@H]12
Activity [1]: inactive | Activity [2]: inactive

COc1cc(C(=O)OC[C@H]2O[C@@H](O[C@@H]3OC=C(C(=O)O)[C@H]4CC=C(C(=O)O)[C@@H]34)[C@H](O)[C@@H](O)[C@@H]2O)ccc1O
Activity [1]: inactive | Activity [2]: inactive

COc1cc(C(=O)O[C@@H]2[C@@H](O)[C@H](O[C@@H]3OC=C(C(=O)O)[C@H]4CC=C(C(=O)O)[C@@H]34)O[C@H](CO)[C@H]2O)ccc1O
Activity [1]: inactive | Activity [2]: inactive

COc1cc(/C=C/C(=O)OC[C@H]2O[C@@H](O[C@@H]3OC=C(C(=O)O)[C@H]4CC=C(C(=O)O)[C@@H]34)[C@H](O)[C@@H](O)[C@@H]2O)ccc1O
Activity [1]: inactive | Activity [2]: inactive

COc1cc(/C=C/C(=O)O[C@H]2[C@H](O)[C@@H](O)[C@H](O[C@@H]3OC=C(C(=O)O)[C@H]4CC=C(C(=O)O)[C@@H]34)O[C@@H]2CO)ccc1O
Activity [1]: inactive | Activity [2]: inactive

O=C(O)C1=CC[C@@H]2C(C(=O)O)=CO[C@@H](O[C@@H]3O[C@H](COC(=O)c4ccccc4)[C@@H](O)[C@H](O)[C@H]3O)[C@H]12
Activity [1]: inactive | Activity [2]: inactive

COc1cc(C(=O)OC[C@H]2O[C@@H](O[C@@H]3OC=C(C(=O)O)[C@H]4CC=C(C(=O)O)[C@@H]34)[C@H](O)[C@@H](O)[C@@H]2O)cc(OC)c1O
Activity [1]: inactive | Activity [2]: inactive

COC(=O)C1=CC[C@@H]2C(C(=O)O)=CO[C@@H](O[C@@H]3O[C@H](CO)[C@@H](O)[C@H](O)[C@H]3O)[C@H]12
Activity [1]: inactive | Activity [2]: inactive
